Results on twelve compounds are retold here after patent US20240018161A1, “MODULATORS OF CYSTIC FIBROSIS TRANSMEMBRANE CONDUCTANCE REGULATOR” (VERTEX PHARMACEUTICALS INCORPORATED, priority 2020, published 2024).

The term EC50 denotes the concentration needed to bring the measured effect to its halfway point.

Like-named read-outs stand apart in the source and are kept apart here. Some results are limits rather than exact numbers.

For data set [1] the following is noted: 13-membered ring, NaH, DMF.
Data set [2] has as its target CFTR-mediated chloride transport in human intestinal epithelial enteroid cells (Homo sapiens, UniProt P13569). The data set can be described thus: Membrane potential dye, Enteroid Assay A. The conditions noted are these: for EC50: read-out: Ent. A EC50. The class given is cell-based. The procedure, abridged:
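Membrane potential dye (20 μM methyl oxonol, with 30 μM CaCCinh-A01 and 30 μM Chicago Sky Blue) loaded 25 min at room temperature into ROCK-inhibitor-seeded human enteroid cells. Chloride-free stimulation buffer triggered transport, followed by 15 min fluorescence. % Activity relative to 3 μM/3 μM/300 nM triple-combination control.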

Sequence of CFTR-mediated chloride transport in human intestinal epithelial enteroid cells (P13569 with tags, fused parts or gaps DEL508-508): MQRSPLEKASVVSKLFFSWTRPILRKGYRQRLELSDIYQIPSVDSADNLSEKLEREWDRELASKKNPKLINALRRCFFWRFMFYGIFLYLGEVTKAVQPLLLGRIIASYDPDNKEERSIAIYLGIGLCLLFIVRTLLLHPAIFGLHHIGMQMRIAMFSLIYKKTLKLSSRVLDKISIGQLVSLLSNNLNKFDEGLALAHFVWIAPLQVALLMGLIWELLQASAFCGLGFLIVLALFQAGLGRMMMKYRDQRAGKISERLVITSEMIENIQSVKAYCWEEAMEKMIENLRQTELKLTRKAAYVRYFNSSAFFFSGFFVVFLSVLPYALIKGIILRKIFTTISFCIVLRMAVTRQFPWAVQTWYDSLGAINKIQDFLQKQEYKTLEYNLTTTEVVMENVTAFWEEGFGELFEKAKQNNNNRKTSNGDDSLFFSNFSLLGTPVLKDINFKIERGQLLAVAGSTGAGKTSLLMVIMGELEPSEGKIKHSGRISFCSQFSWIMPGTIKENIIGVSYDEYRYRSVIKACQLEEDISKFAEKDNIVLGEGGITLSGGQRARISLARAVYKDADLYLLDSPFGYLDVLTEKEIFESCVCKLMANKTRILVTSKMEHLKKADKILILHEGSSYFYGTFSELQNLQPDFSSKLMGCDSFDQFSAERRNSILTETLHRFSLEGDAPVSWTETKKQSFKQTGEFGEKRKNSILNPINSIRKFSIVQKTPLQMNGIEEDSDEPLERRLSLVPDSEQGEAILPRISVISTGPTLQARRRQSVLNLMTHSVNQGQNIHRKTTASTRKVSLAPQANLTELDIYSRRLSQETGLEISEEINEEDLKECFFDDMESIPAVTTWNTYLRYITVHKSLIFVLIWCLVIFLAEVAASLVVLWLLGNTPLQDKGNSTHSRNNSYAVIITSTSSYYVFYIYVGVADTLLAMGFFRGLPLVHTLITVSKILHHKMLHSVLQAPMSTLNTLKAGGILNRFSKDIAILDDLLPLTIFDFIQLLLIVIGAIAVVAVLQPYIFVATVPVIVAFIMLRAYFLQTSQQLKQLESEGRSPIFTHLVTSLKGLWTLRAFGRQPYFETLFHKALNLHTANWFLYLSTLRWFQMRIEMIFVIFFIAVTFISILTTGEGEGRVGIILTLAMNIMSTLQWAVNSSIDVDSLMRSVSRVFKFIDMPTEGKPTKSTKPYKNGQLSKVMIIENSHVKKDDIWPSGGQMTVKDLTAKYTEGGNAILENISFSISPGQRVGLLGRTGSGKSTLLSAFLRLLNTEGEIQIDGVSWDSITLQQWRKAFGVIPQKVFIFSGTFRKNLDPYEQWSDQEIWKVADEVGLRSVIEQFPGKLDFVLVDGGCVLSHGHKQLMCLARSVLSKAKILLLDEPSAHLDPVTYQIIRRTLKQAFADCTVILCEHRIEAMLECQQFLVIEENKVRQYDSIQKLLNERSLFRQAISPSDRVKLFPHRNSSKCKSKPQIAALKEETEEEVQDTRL

As for `Cc1cccc(C)c1-c1cc2nc(n1)NS(=O)(=O)c1cccc(c1)C(=O)N1CCN(C(=O)OC(C)(C)C)CC(C1)O2` (stereo not drawn) [Compound 43, tert-Butyl 12-(2,6-dimethylphenyl)-2,8,8-trioxo-15-oxa-8λ^6-thia-1,9,11,18,22-pentaazatetracyclo[14.4.1.13,7.110,14]tricosa-3(23),4,6,10(22),11,13-hexaene-18-carboxylate], the ring closure, isolated yield in data set [1] (from Cc1cccc(C)c1-c1cc(Cl)nc(NS(=O)(=O)c2cccc(C(=O)N3CCN(C(=O)OC(C)(C)C)CC(O)C3)c2)n1, snar bond, 15.5 mM, 25.0 °C, 16.0 h) was 56%. Besides, the EC50 in data set [2] (enteroid cells incubated with test compound 18-24 hours, acute 10 μM forskolin and 300 nM N-[2,4-bis(1,1-dimethylethyl)-5-hydroxyphenyl]-1,4-dihydro-4-oxoquinoline-3-carboxamide) is less than 1000 nM. Besides, in data set [2] (percentage of chloride transport of triple combination control (3 μM N-[(6-amino-2-pyridyl)sulfonyl]-6-(3-fluoro-5-isobutoxy-phenyl)-2-[(4S)-2,2,4-trimethylpyrrolidin-1-yl]pyridine-3-carboxamide based)), the “Ent. A Max Activity (%)” value was “+++ (+++ is >60%)”.

In turn, `Cc1cccc(C)c1-c1cc2nc(n1)NS(=O)(=O)c1cccc(c1)CN1CC(CN(C(=O)OC(C)(C)C)CC1=O)O2` (stereo not drawn) [Compound 77, tert-Butyl 12-(2,6-dimethylphenyl)-8,8,20-trioxo-15-oxa-8λ^6-thia-1,9,11,18,22-pentaazatetracyclo[14.4.1.13,7.110,14]tricosa-3(23),4,6,10,12,14(22)-hexaene-18-carboxylate] displayed a ring closure, isolated yield in data set [1] (from Cc1cccc(C)c1-c1cc(OC2CNC(=O)CN(C(=O)OC(C)(C)C)C2)nc(NS(=O)(=O)c2cccc(CBr)c2)n1, other bond, 19.7 mM, 0.0 °C, 0.5 h) of 68%. In data set [2] (Enteroid Assay A), the “Ent. A Max Activity (%)” value is reported as “++ (++ is 30-60%)” and the EC50 was less than 1000 nM.

As for `Cc1cccc(C)c1-c1cc2nc(n1)NS(=O)(=O)c1cccc(c1)C(=O)N1CCN(Cc3ccccc3)C[C@@H](O2)[C@H]1CC(C)C` [Compound 84, (16R,21R)-18-Benzyl-12-(2,6-dimethylphenyl)-21-(2-methylpropyl)-15-oxa-8λ^6-thia-1,9,11,18,22-pentaazatetracyclo[14.4.1.13,7.110,14]tricosa-3(23),4,6,10,12,14(22)-hexaene-2,8,8-trione], the ring closure, isolated yield in data set [1] (from Cc1cccc(C)c1-c1cc(Cl)nc(NS(=O)(=O)c2cccc(C(=O)N3CCN(Cc4ccccc4)C[C@H](O)[C@H]3CC(C)C)c2)n1, snar bond, 16.6 mM, 25.0 °C, 72.0 h) came to 35%. In data set [2] (Enteroid Assay A), the “Ent. A Max Activity (%)” value is “+++ (+++ is >600%)” and the concentration giving a half-maximal response (EC50) is less than 1000 nM.

In the case of `Cc1cccc(C)c1-c1cc2nc(n1)NS(=O)(=O)c1cccc(c1)C(=O)N1CCN(Cc3ccccc3)C[C@H](O2)[C@H]1CC(C)C` [Compound 86, (16S,21R)-18-Benzyl-12-(2,6-dimethylphenyl)-21-(2-methylpropyl)-15-oxa-8λ^6-thia-1,9,11,18,22-pentaazatetracyclo[14.4.1.13,7.110,14]tricosa-3(23),4,6,10(22),11,13-hexaene-2,8,8-trione], in data set [1] (from Cc1cccc(C)c1-c1cc(Cl)nc(NS(=O)(=O)c2cccc(C(=O)N3CCN(Cc4ccccc4)C[C@@H](O)[C@H]3CC(C)C)c2)n1, snar bond, 16.5 mM, 25.0 °C, 17.0 h), the ring closure, isolated yield was 5%. Also, in data set [2] (Enteroid Assay A), the “Ent. A Max Activity (%)” value is reported as “+++ (+++ is >600%)” and the concentration giving a half-maximal response (EC50) was less than 1000 nM.

Regarding `Cc1cccc(C)c1-c1cc2nc(n1)NS(=O)(=O)c1cccc(c1)C(=O)N1C[C@@H](CN(C(=O)OC(C)(C)C)C[C@@H]1CC(C)C)O2` [Compound 96, tert-Butyl (16S,20S)-12-(2,6-dimethylphenyl)-20-(2-methylpropyl)-2,8,8-trioxo-15-oxa-8λ^6-thia-1,9,11,18,22-pentaazatetracyclo[14.4.1.13,7.110,14]tricosa-3(23),4,6,10(22),11,13-hexaene-18-carboxylate], in data set [1] (from Cc1cccc(C)c1-c1cc(Cl)nc(NS(=O)(=O)c2cccc(C(=O)N3C[C@H](O)CN(C(=O)OC(C)(C)C)C[C@@H]3CC(C)C)c2)n1, snar bond, 29.2 mM, 25.0 °C, 5.08 h), the ring closure, isolated yield is 66%. In data set [2] (Enteroid Assay A), the “Ent. A Max Activity (%)” value is “++ (++ is 30-60%)” and the EC50 was less than 1000 nM.

Regarding `Cc1cccc(C)c1-c1cc2nc(n1)NS(=O)(=O)c1cccc(c1)C(=O)N1C[C@H](CN(C(=O)OC(C)(C)C)C[C@@H]1CC(C)C)O2` [Compound 100, tert-Butyl (16R,20S)-12-(2,6-dimethylphenyl)-20-(2-methylpropyl)-2,8,8-trioxo-15-oxa-8λ^6-thia-1,9,11,18,22-pentaazatetracyclo[14.4.1.13,7.110,14]tricosa-3(23),4,6,10(22),11,13-hexaene-18-carboxylate], the ring closure, isolated yield in data set [1] (from Cc1cccc(C)c1-c1cc(Cl)nc(NS(=O)(=O)c2cccc(C(=O)N3CC(O)CN(C(=O)OC(C)(C)C)C[C@@H]3CC(C)C)c2)n1, snar bond, 31.2 mM, 25.0 °C, 3.08 h) is 35%. Further, the “Ent. A Max Activity (%)” value in data set [2] (Enteroid Assay A) is “+ (+ is <30%)”.

Compound `Cc1cccc(C)c1-c1cc2nc(n1)NS(=O)(=O)c1cccc(c1)C(=O)N1C[C@@H](CN(C(=O)OC(C)(C)C)C[C@H]1CC(C)C)O2` [Compound 102, tert-Butyl (16S,20R)-12-(2,6-dimethylphenyl)-20-(2-methylpropyl)-2,8,8-trioxo-15-oxa-8λ^6-thia-1,9,11,18,22-pentaazatetracyclo[14.4.1.13,7.110,14]tricosa-3(23),4,6,10(22),11,13-hexaene-18-carboxylate] gave a ring closure, isolated yield in data set [1] (from Cc1cccc(C)c1-c1cc(Cl)nc(NS(=O)(=O)c2cccc(C(=O)N3C[C@H](O)CN(C(=O)OC(C)(C)C)C[C@H]3CC(C)C)c2)n1, snar bond, 30.8 mM, 4.17 h) of 34%. Also, in data set [2] (Enteroid Assay A), the “Ent. A Max Activity (%)” value is reported as “++ (++ is 30-60%)” and the 50% effective concentration (EC50) is less than 1000 nM.

For `Cc1cccc(C)c1-c1cc2nc(n1)NS(=O)(=O)c1cccc(c1)C(=O)N1C[C@H](CN(C(=O)OC(C)(C)C)C[C@H]1CC(C)C)O2` [Compound 106, tert-Butyl (16R,20R)-12-(2,6-dimethylphenyl)-20-(2-methylpropyl)-2,8,8-trioxo-15-oxa-8λ^6-thia-1,9,11,18,22-pentaazatetracyclo[14.4.1.13,7.110,14]tricosa-3(23),4,6,10(22),11,13-hexaene-18-carboxylate], the ring closure, isolated yield in data set [1] (from Cc1cccc(C)c1-c1cc(Cl)nc(NS(=O)(=O)c2cccc(C(=O)N3C[C@@H](O)CN(C(=O)OC(C)(C)C)C[C@H]3CC(C)C)c2)n1, snar bond, 31.3 mM, 2.17 h) amounted to 45%. Further, in data set [2] (Enteroid Assay A), the “Ent. A Max Activity (%)” value is recorded as “+ (+ is <30%)”.

For `Cc1cccc(C)c1-c1cc2nc(n1)NS(=O)(=O)c1cccc(c1)C(=O)N1C[C@@H](CN(Cc3ccccc3)[C@@H](CC(C)C)C1)O2` [Compound 109, (16R,19S)-18-Benzyl-12-(2,6-dimethylphenyl)-19-(2-methylpropyl)-15-oxa-8λ^6-thia-1,9,11,18,22-pentaazatetracyclo[14.4.1.13,7.110,14]tricosa-3(23),4,6,10(22),11,13-hexaene-2,8,8-trione], the ring closure, isolated yield in data set [1] (from Cc1cccc(C)c1-c1cc(Cl)nc(NS(=O)(=O)c2cccc(C(=O)N3CC(O)CN(Cc4ccccc4)[C@@H](CC(C)C)C3)c2)n1, snar bond, 30.0 mM, 0.0 °C, 7.0 h) is 28%. In data set [2] (Enteroid Assay A), the “Ent. A Max Activity (%)” value was “+++ (+++ is >600%)” and the EC50 is less than 1000 nM.

Take `Cc1cccc(C)c1-c1cc2nc(n1)NS(=O)(=O)c1cccc(c1)C(=O)N1C[C@H](CN(Cc3ccccc3)[C@H](CC(C)C)C1)O2` [Compound 111, (16S,19R)-18-Benzyl-12-(2,6-dimethylphenyl)-19-(2-methylpropyl)-15-oxa-8λ^6-thia-1,9,11,18,22-pentaazatetracyclo[14.4.1.13,7.110,14]tricosa-3(23),4,6,10(22),11,13-hexaene-2,8,8-trione]: the ring closure, isolated yield in data set [1] (from Cc1cccc(C)c1-c1cc(Cl)nc(NS(=O)(=O)c2cccc(C(=O)N3C[C@@H](O)CN(Cc4ccccc4)[C@H](CC(C)C)C3)c2)n1, snar bond, 28.6 mM, 4.6 h) came out at 57%. Moreover, the “Ent. A Max Activity (%)” value in data set [2] (Enteroid Assay A) is given as “+ (+ is <30%)”.

`Cc1cccc(C)c1-c1cc2nc(n1)NS(=O)(=O)c1cccc(c1)C(=O)N1CCN(C(=O)OC(C)(C)C)[C@H](CC(C)C)[C@H](C1)O2` [Compound 114, tert-Butyl (16S,17R)-12-(2,6-dimethylphenyl)-17-(2-methylpropyl)-2,8,8-trioxo-15-oxa-8λ^6-thia-1,9,11,18,22-pentaazatetracyclo[14.4.1.13,7.110,14]tricosa-3(23),4,6,10(22),11,13-hexaene-18-carboxylate] gave a ring closure, isolated yield in data set [1] (from Cc1cccc(C)c1-c1cc(Cl)nc(NS(=O)(=O)c2cccc(C(=O)N3CCN(C(=O)OC(C)(C)C)[C@H](CC(C)C)[C@@H](O)C3)c2)n1, snar bond, 30.9 mM, 1.67 h) of 34%. Also, in data set [2] (Enteroid Assay A), the “Ent. A Max Activity (%)” value was “+++ (+++ is >600%)” and the concentration giving a half-maximal response (EC50) is less than 1000 nM.

Regarding `Cc1cccc(C)c1-c1cc2nc(n1)NS(=O)(=O)c1cccc(c1)C(=O)N1CCN(C(=O)OC(C)(C)C)[C@H](CC(C)C)[C@@H](C1)O2` [Compound 115, tert-Butyl (16R,17R)-12-(2,6-dimethylphenyl)-17-(2-methylpropyl)-2,8,8-trioxo-15-oxa-8λ^6-thia-1,9,11,18,22-pentaazatetracyclo[14.4.1.13,7.110,14]tricosa-3(23),4,6,10(22),11,13-hexaene-18-carboxylate], in data set [1] (from Cc1cccc(C)c1-c1cc(Cl)nc(NS(=O)(=O)c2cccc(C(=O)N3CCN(C(=O)OC(C)(C)C)[C@H](CC(C)C)[C@H](O)C3)c2)n1, snar bond, 31.6 mM, 1.67 h), the ring closure, isolated yield came out at 67%. Further, in data set [2] (Enteroid Assay A), the “Ent. A Max Activity (%)” value is on record as “++ (++ is 30-60%)” and the concentration for a half-maximal effect (EC50) is less than 1000 nM.
